Reference: patent publication US20250351832A1, “PHYTOCHEMICALS AS BIOPESTICIDES AND BIOSTIMULANTS” (KAY BEE BIO ORGANICS PVT. LTD., priority 2024, published 2025)
Read-outs that look alike come from different tables or passages of the source.

Assays:
[1] = test system: Alternaria alternata; assay: In vitro poisoned food technique against fungus (Ex. 20); format: cell-based; details: poisoned food technique, PDA medium, dose 1 ml/gm/lit., after seven days
[2] = test system: Alternaria alternata; assay: Alternaria leaf spot/blight on inoculated tomato plants (Ex. 28); format: in vivo; details: tomato plants, Alternaria alternata; after 7 days; dose 1 ml/gm/lit
[3] = test system: tomato seedlings; assay: Response of tomato plants, greenhouse growth (Ex. 30); format: in vivo; details: tomato seedlings, dose 1 ml/gm/lit; for Plant Height 5th Day / Stem Girth 5th Day / CCI 5th Day: 5th day after application; for Plant Height 10th Day / Stem Girth 10th Day / CCI 10th Day: 10th day after application; for Plant Height % Increase over pre on 10th Day / Stem Girth % Increase over pre on 10th Day / CCI % Increase over pre on 10th Day / Root Length (cm) 10th Day / Root Length % Increase over control: 10th day; for Root Length % Increase over control: vs water control
[4] = test system: chili seedlings; assay: Response of chili plants, greenhouse growth (Ex. 31); format: in vivo; details: chili seedlings, dose 1 ml/gm/lit; for CCI 5th Day / Plant Height (cm) 5th Day: 5th day after application; for CCI 10th Day / Plant Height (cm) 10th Day: 10th day after application; for CCI % Increase over pre on 10th Day / Plant Height % Increase over pre on 10th Day / Root Lenght (cm) 10th Day / Stem Girth % Increase over pre on 10th Day / Root Lenght % Increase over control: 10th day; for Root Lenght % Increase over control: vs water control
[5] = test system: Aphid; details: Dose 1 ml/gm/lit.; for Total No. of dead insect at 48 Hrs.: 10 insects/treatment, 4 replications, cotton leaves
[6] = test system: Mite; details: Dose 1 ml/gm/lit.; for Total No. of dead insect at 48 Hrs.: 10 insects/treatment, 4 replications, okra leaves
[7] = test system: Mealy Bug; details: Mealy Bug on cotton leaves, dose 1 ml/gm/lit., 48 Hrs.; for Total No. of dead insect at 48 Hrs.: 10 insects/treatment, 4 replications; for % Corrected Mortality at 48 Hrs.: corrected for water control
[8] = test system: Helicoverpa armigera; details: Helicoverpa armigera on okra fruits, dose 1 ml/gm/lit., 72 Hrs.; for Total No. of dead insect at 72 Hrs.: 10 insects/treatment, 4 replications; for % Corrected Mortality at 72 Hrs.: corrected for water control
[9] = test system: Spodoptera litura; details: Spodoptera litura on castor leaves, dose 1 ml/gm/lit.; for Total No. of dead insect at 72 Hrs.: 10 insects/treatment
[10] = test system: Thrips; details: Thrips on cotton leaves, dose 1 ml/gm/lit.; for Total No. of dead insect at 48 Hrs.: 10 insects/treatment
[11] = test system: Aphid; details: Aphids on cotton plants, green house, dose 1 ml/gm/lit.; for Total No. of dead insect at 48 Hrs.: 10 insects/plant, 10 plants/treatment
[12] = test system: Mite; details: mite on okra plants, green house, dose 1 ml/gm/lit. spray; for % Mortality at 48 Hrs. / Total No. of dead insect at 48 Hrs.: 48 hrs after application; for % Corrected Mortality at 48 Hrs.: corrected for water control
[13] = test system: Mealy Bug; details: mealy bug on cotton plants, green house, dose 1 ml/gm/lit. spray; for % Mortality at 48 Hrs. / Total No. of dead insect at 48 Hrs.: 48 hrs after application; for % Corrected Mortality at 48 Hrs.: corrected for water control
[14] = test system: Helicoverpa armigera; details: Helicoverpa armigera 3rd instar on chickpea plants, dose 1 ml/gm/lit. spray; for % Mortality at 72 Hrs.: 72 hrs after application; for % Corrected Mortality at 72 Hrs.: corrected for water control
[15] = test system: Thrips; details: thrips on cotton plants, greenhouse, dose 1 ml/gm/lit. spray; for % Mortality at 48 Hrs. / Total No. of dead insect at 48 Hrs.: 48 hrs after application; for % Corrected Mortality at 48 Hrs.: corrected for water control
[16] = Table 13, descriptive; no test described; cited from earlier work
[17] = test system: Spodoptera litura; assay: whole plant or invertebrate; details: 72 h
[18] = test system: Thrips; assay: whole plant or invertebrate; details: in Gossypium hirsutum, 48 h
[19] = test system: Aphid; assay: whole plant or invertebrate; details: 48 h
[20] = test system: Spodoptera litura; details: Spodoptera litura 3rd instar on cabbage plants, dose 1 ml/gm/lit. spray
[21] = read-out: % Corrected Mortality at 48 Hrs.
[22] = read-out: % Mortality at 48 Hrs.
[23] = 72 hrs, corrected for water control
[24] = 48 hrs, corrected for water control

## CC1=CC(=O)C(C(C)C)=CC1=O [Thymoquinone]
[1]
  Mean colony Diameter (mm): 54.00 mm
[1]; vs untreated control, read-out: % Inhibition of growth
  inhibition of growth at 1 mL or g/L: 38.6%
[2]
  % Disease reduction over Control: 44.63%
[3]
  Plant Height 5th Day: 6.58 cm
  Stem Girth 5th Day: 1.68 mm
  Plant Height 10th Day: 7.69 cm
  Stem Girth 10th Day: 2.30 mm
  Plant Height % Increase over pre on 10th Day: 41.36%
  Stem Girth % Increase over pre on 10th Day: 74.24%
  CCI 5th Day: 14.21
  CCI % Increase over pre on 10th Day: 30.73%
  Root Length (cm) 10th Day: 4.42 cm
  CCI 10th Day: 16.21
  Root Length % Increase over control: 32.93%
[4]
  CCI 5th Day: 13.76
  Plant Height (cm) 5th Day: 5.77 cm
  CCI % Increase over pre on 10th Day: 58.19%
  Plant Height % Increase over pre on 10th Day: 63.27%
  Root Lenght (cm) 10th Day: 4.16 cm
  Stem Girth % Increase over pre on 10th Day: 57.48%
  CCI 10th Day: 14
  Plant Height (cm) 10th Day: 6.89 cm
  Root Lenght % Increase over control: 52.17%
[5]
  Total No. of dead insect at 48 Hrs.: 4.75
[5]; 48 hrs
  % Corrected Mortality at 48 Hrs.: 40.00%
[6]
  Total No. of dead insect at 48 Hrs.: 3.25
  % Corrected Mortality at 48 Hrs.: 27.03%
  % Mortality at 48 Hrs.: 32.50%
[7]
  Total No. of dead insect at 48 Hrs.: 5.25
  % Mortality at 48 Hrs.: 52.50%
  % Corrected Mortality at 48 Hrs.: 50.00%
[8]
  Total No. of dead insect at 72 Hrs.: 4.25
  % Mortality at 72 Hrs.: 42.50%
  % Corrected Mortality at 72 Hrs.: 42.50%
[9]; 72 hrs after application
  Total No. of dead insect at 72 Hrs.: 4.25
[10]; 48 hrs after application
  Total No. of dead insect at 48 Hrs.: 2.25
[11]; 48 hrs
  Total No. of dead insect at 48 Hrs.: 47.50
[12]
  % Mortality at 48 Hrs.: 30.00%
  Total No. of dead insect at 48 Hrs.: 30.00
  % Corrected Mortality at 48 Hrs.: 26.32%
[13]
  % Mortality at 48 Hrs.: 50.00%
  Total No. of dead insect at 48 Hrs.: 50.00
  % Corrected Mortality at 48 Hrs.: 44.44%
[14]
  % Mortality at 72 Hrs.: 45.00%
  % Corrected Mortality at 72 Hrs.: 45.00%
[15]
  % Mortality at 48 Hrs.: 20.00%
  Total No. of dead insect at 48 Hrs.: 20.00
  % Corrected Mortality at 48 Hrs.: 11.11%
[16]
  Acaricidal Activity - Mode of action: Contact acaricidal activity
  Antioxidant Activity - Mode of action: Reducing Oxidative Stress
  Bactericidal Activity - Mode of action: Inhibitory effect on spore
  Insecticidal Activities - Mode of action: Decreased larval survival
[17]; read-out: % Corrected Mortality at 72 Hrs.
  mortality at 1 mL or g/L: 39.5%
[17]; read-out: % Mortality at 72 Hrs.
  mortality at 1 mL or g/L: 42.5%
[18]; [21]
  mortality at 1 mL or g/L: 11.4%
[18]; [22]
  mortality at 1 mL or g/L: 22.5%
[19]; [21]
  mortality at 1 mL or g/L: 38.2%
[19]; [22]
  mortality at 1 mL or g/L: 47.5%

## Parthenin
[1]
  Mean colony Diameter (mm): 78.00 mm
[1]; vs untreated control
  % Inhibition of growth: 11.36%
[2]
  % Disease reduction over Control: 43.80%
[3]
  Plant Height 5th Day: 6.64 cm
  Stem Girth 5th Day: 1.66 mm
  Plant Height 10th Day: 7.29 cm
  Stem Girth 10th Day: 2.22 mm
  Plant Height % Increase over pre on 10th Day: 29.95%
  Stem Girth % Increase over pre on 10th Day: 55.53%
  CCI 5th Day: 13.95
  CCI % Increase over pre on 10th Day: 20.70%
  Root Length (cm) 10th Day: 4.05 cm
  CCI 10th Day: 14.87
  Root Length % Increase over control: 21.63%
[3]; before application
  Plant Height Pre: 5.61 cm
  Stem Girth Pre: 1.43 mm
[3]; pre-application baseline
  CCI Pre: 12.32
[4]
  CCI 5th Day: 14.50
  Plant Height (cm) 5th Day: 6.13 cm
  CCI % Increase over pre on 10th Day: 74.40%
  Plant Height % Increase over pre on 10th Day: 52.29%
  Root Lenght (cm) 10th Day: 3.12 cm
  Stem Girth % Increase over pre on 10th Day: 38.18%
  CCI 10th Day: 15.87
  Plant Height (cm) 10th Day: 6.65 cm
  Root Lenght % Increase over control: 14.01%
[4]; pre-application baseline
  CCI Pre: 9.10
  Plant Height (cm) Pre: 4.37 cm
[5]
  Total No. of dead insect at 48 Hrs.: 6.00
[5]; 48 hrs
  % Corrected Mortality at 48 Hrs.: 54.29%
  % Mortality at 48 Hrs.: 60.00%
[6]
  Total No. of dead insect at 48 Hrs.: 3.25
  % Corrected Mortality at 48 Hrs.: 27.03%
  % Mortality at 48 Hrs.: 32.50%
[7]
  Total No. of dead insect at 48 Hrs.: 4.75
  % Mortality at 48 Hrs.: 47.50%
  % Corrected Mortality at 48 Hrs.: 44.74%
[8]
  Total No. of dead insect at 72 Hrs.: 3.25
  % Mortality at 72 Hrs.: 32.50%
  % Corrected Mortality at 72 Hrs.: 32.50%
[9]; 72 hrs after application
  Total No. of dead insect at 72 Hrs.: 2.75
  % Mortality at 72 Hrs.: 27.50%
[9]; [23]
  % Corrected Mortality at 72 Hrs.: 23.68%
[10]; 48 hrs after application
  Total No. of dead insect at 48 Hrs.: 4.75
  % Mortality at 48 Hrs.: 47.50%
[10]; [24]
  % Corrected Mortality at 48 Hrs.: 40.00%
[11]; 48 hrs
  Total No. of dead insect at 48 Hrs.: 57.50
[11]; 48 hrs after application
  % Mortality at 48 Hrs.: 57.50%
[11]; [24]
  % Corrected Mortality at 48 Hrs.: 50.00%
[12]
  % Mortality at 48 Hrs.: 22.50%
  Total No. of dead insect at 48 Hrs.: 22.50
  % Corrected Mortality at 48 Hrs.: 18.42%
[13]
  % Mortality at 48 Hrs.: 50.00%
  Total No. of dead insect at 48 Hrs.: 50.00
  % Corrected Mortality at 48 Hrs.: 44.44%
[14]
  % Mortality at 72 Hrs.: 35.00%
  % Corrected Mortality at 72 Hrs.: 35.00%
[20]; 72 hrs after application
  % Mortality at 72 Hrs.: 27.50%
[20]; [23]
  % Corrected Mortality at 72 Hrs.: 23.68%
[15]
  % Mortality at 48 Hrs.: 45.00%
  Total No. of dead insect at 48 Hrs.: 45.00
  % Corrected Mortality at 48 Hrs.: 38.89%
[16]
  Antioxidant Activity - Mode of action: Possesses antioxidant
  Insecticidal Activities - Mode of action: Antifeedant activity against
